Results from PubChem BioAssay (NCI).
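Method: 48-hour compound exposure of cells in 96-well plates, five concentrations, linear interpolation of endpoints. At the GI50, growth is halved. At the TGI there is no net growth.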

Assays:
Experiment in all cases: growth of human tumour cells (NCI), 48 h
HOP-92 NSCLC = test system: HOP-92 NSCLC
LOX IMVI melanoma = test system: LOX IMVI melanoma
SK-MEL-5 melanoma = test system: SK-MEL-5 melanoma
NCI-H522 lung = test system: NCI-H522 lung
NCI/ADR-RES ovarian = test system: NCI/ADR-RES ovarian
KM12 colon = test system: KM12 colon
MALME-3M melanoma = test system: MALME-3M melanoma
U251 CNS = test system: U251 CNS
MCF7 breast = test system: MCF7 breast
TK-10 renal = test system: TK-10 renal
BT-549 breast = test system: BT-549 breast
SK-MEL-28 melanoma = test system: SK-MEL-28 melanoma
OVCAR-8 ovarian = test system: OVCAR-8 ovarian
COLO 205 colon = test system: COLO 205 colon
HS 578T breast = test system: HS 578T breast
SNB-19 CNS = test system: SNB-19 CNS
HCC-2998 colon = test system: HCC-2998 colon
PC-3 prostate = test system: PC-3 prostate
IGROV1 ovarian = test system: IGROV1 ovarian
NCI-H460 lung = test system: NCI-H460 lung
SF-539 CNS = test system: SF-539 CNS
OVCAR-5 ovarian = test system: OVCAR-5 ovarian
UACC-62 melanoma = test system: UACC-62 melanoma
CAKI-1 renal = test system: CAKI-1 renal
EKVX NSCLC = test system: EKVX NSCLC
HOP-62 NSCLC = test system: HOP-62 NSCLC
A498 renal = test system: A498 renal
SF-268 CNS = test system: SF-268 CNS
OVCAR-3 ovarian = test system: OVCAR-3 ovarian
UO-31 renal = test system: UO-31 renal
NCI-H226 lung = test system: NCI-H226 lung
T-47D breast = test system: T-47D breast
SN12C renal = test system: SN12C renal
RXF 393 renal = test system: RXF 393 renal
SK-OV-3 ovarian = test system: SK-OV-3 ovarian
UACC-257 melanoma = test system: UACC-257 melanoma
RPMI-8226 leukemia = test system: RPMI-8226 leukemia
SF-295 CNS = test system: SF-295 CNS
DU-145 prostate = test system: DU-145 prostate
786-0 renal = test system: 786-0 renal
NCI-H23 lung = test system: NCI-H23 lung
HT29 colon = test system: HT29 colon
SNB-75 CNS = test system: SNB-75 CNS
K-562 leukemia = test system: K-562 leukemia
A549 NSCLC = test system: A549 NSCLC
HL-60(TB) leukemia = test system: HL-60(TB) leukemia
ACHN renal = test system: ACHN renal
HCT-15 colon = test system: HCT-15 colon
CCRF-CEM leukemia = test system: CCRF-CEM leukemia
MDA-MB-435 = test system: MDA-MB-435
SK-MEL-2 melanoma = test system: SK-MEL-2 melanoma
M14 melanoma = test system: M14 melanoma
SW-620 colon = test system: SW-620 colon
OVCAR-4 ovarian = test system: OVCAR-4 ovarian
HCT-116 colon = test system: HCT-116 colon
MDA-MB-231 breast = test system: MDA-MB-231 breast

Question: What does the source list for `COc1ccc2c(c1)CCC1C2CC[C@@]2(C)C1CC[C@@]2(O)CNC(=O)/C=C/c1ccc(O)c(OC)c1` (some centres not stated)?
Answer: GI50 (HOP-92 NSCLC): 14.9 µM; TGI (HOP-92 NSCLC): 60 µM; GI50 (LOX IMVI melanoma): 7.76 µM; TGI (LOX IMVI melanoma): 20.5 µM; GI50 (SK-MEL-5 melanoma): 18.2 µM; TGI (SK-MEL-5 melanoma): 46.6 µM; GI50 (NCI-H522 lung): 19.9 µM; TGI (NCI-H522 lung): > 100 µM; GI50 (NCI/ADR-RES ovarian): 12.5 µM; TGI (NCI/ADR-RES ovarian): 83.4 µM; GI50 (KM12 colon): 4.77 µM; TGI (KM12 colon): > 100 µM; GI50 (MALME-3M melanoma): 21.3 µM; TGI (MALME-3M melanoma): > 100 µM; GI50 (U251 CNS): 19 µM; TGI (U251 CNS): 76.6 µM; GI50 (MCF7 breast): 7.41 µM; TGI (MCF7 breast): > 100 µM; GI50 (TK-10 renal): 6.86 µM; TGI (TK-10 renal): > 100 µM; GI50 (BT-549 breast): 16.2 µM; TGI (BT-549 breast): 75.7 µM; GI50 (SK-MEL-28 melanoma): 15.2 µM; TGI (SK-MEL-28 melanoma): 84.4 µM; GI50 (OVCAR-8 ovarian): 38.4 µM; TGI (OVCAR-8 ovarian): > 100 µM; GI50 (COLO 205 colon): 14 µM; TGI (COLO 205 colon): 35.3 µM; GI50 (HS 578T breast): 75.3 µM; TGI (HS 578T breast): > 100 µM; GI50 (SNB-19 CNS): 27.8 µM; TGI (SNB-19 CNS): > 100 µM; GI50 (HCC-2998 colon): 17.7 µM; TGI (HCC-2998 colon): 33.7 µM; GI50 (PC-3 prostate): 12.1 µM; TGI (PC-3 prostate): 83.8 µM; GI50 (IGROV1 ovarian): 4.66 µM; TGI (IGROV1 ovarian): > 100 µM; GI50 (NCI-H460 lung): 4.02 µM; TGI (NCI-H460 lung): > 100 µM; TGI (SF-539 CNS): 19.3 µM; GI50 (OVCAR-5 ovarian): 45.5 µM; TGI (OVCAR-5 ovarian): > 100 µM; GI50 (UACC-62 melanoma): 12.1 µM; TGI (UACC-62 melanoma): 34.9 µM; GI50 (CAKI-1 renal): 21.9 µM; TGI (CAKI-1 renal): > 100 µM; GI50 (EKVX NSCLC): 10.7 µM; TGI (EKVX NSCLC): 83.7 µM; GI50 (HOP-62 NSCLC): 31.8 µM; TGI (HOP-62 NSCLC): > 100 µM; GI50 (A498 renal): 23 µM; TGI (A498 renal): 54.5 µM; GI50 (SF-268 CNS): 20 µM; TGI (SF-268 CNS): > 100 µM; GI50 (OVCAR-3 ovarian): 37.5 µM; TGI (OVCAR-3 ovarian): > 100 µM; GI50 (UO-31 renal): 10.3 µM; TGI (UO-31 renal): > 100 µM; GI50 (NCI-H226 lung): 22.5 µM; TGI (NCI-H226 lung): 74.6 µM; GI50 (T-47D breast): 9.12 µM; TGI (T-47D breast): > 100 µM; GI50 (SN12C renal): 24.3 µM; TGI (SN12C renal): > 100 µM; GI50 (RXF 393 renal): 21.1 µM; TGI (RXF 393 renal): 78.6 µM; GI50 (SK-OV-3 ovarian): 66.1 µM; TGI (SK-OV-3 ovarian): > 100 µM; GI50 (UACC-257 melanoma): 28 µM; TGI (UACC-257 melanoma): 80 µM; GI50 (RPMI-8226 leukemia): 6.47 µM; TGI (RPMI-8226 leukemia): 53.9 µM; GI50 (SF-295 CNS): 28.4 µM; TGI (SF-295 CNS): > 100 µM; GI50 (DU-145 prostate): 36.6 µM; TGI (DU-145 prostate): > 100 µM; GI50 (786-0 renal): 23.2 µM; TGI (786-0 renal): > 100 µM; GI50 (NCI-H23 lung): 25.5 µM; TGI (NCI-H23 lung): > 100 µM; GI50 (HT29 colon): 2.8 µM; TGI (HT29 colon): 10.8 µM; GI50 (SNB-75 CNS): 26.6 µM; TGI (SNB-75 CNS): > 100 µM; GI50 (K-562 leukemia): 12.3 µM; TGI (K-562 leukemia): > 100 µM; GI50 (A549 NSCLC): 22.3 µM; TGI (A549 NSCLC): > 100 µM; GI50 (HL-60(TB) leukemia): 8.46 µM; TGI (HL-60(TB) leukemia): > 100 µM; GI50 (ACHN renal): 17.5 µM; TGI (ACHN renal): 46.7 µM; GI50 (HCT-15 colon): 11.5 µM; TGI (HCT-15 colon): 33.1 µM; GI50 (CCRF-CEM leukemia): 0.932 µM; TGI (CCRF-CEM leukemia): > 100 µM; GI50 (MDA-MB-435): 4.95 µM; TGI (MDA-MB-435): > 100 µM; GI50 (SK-MEL-2 melanoma): 38.8 µM; TGI (SK-MEL-2 melanoma): > 100 µM; GI50 (M14 melanoma): 15.8 µM; TGI (M14 melanoma): 53 µM; GI50 (SW-620 colon): 58.4 µM; TGI (SW-620 colon): > 100 µM; GI50 (OVCAR-4 ovarian): 14.9 µM; TGI (OVCAR-4 ovarian): > 100 µM; GI50 (HCT-116 colon): 19 µM; TGI (HCT-116 colon): > 100 µM

Question: For `NC(N)=N/N=C/c1c(-c2ccc([N+](=O)[O-])cc2)nc2sccn12`, which TGI (HOP-92 NSCLC) is on record?
Answer: The TGI was 3.52 µM.

Question: What about the TGI (SK-MEL-5 melanoma) of the same compound?
Answer: Its TGI is 7.98 µM.

Question: And the TGI (NCI-H522 lung)?
Answer: Its TGI is 3.83 µM.

Question: What about the TGI (NCI/ADR-RES ovarian) of the same compound?
Answer: The TGI was over 100 µM.

Question: And the TGI (KM12 colon)?
Answer: Its TGI is 1.88 µM.

Question: And the TGI (U251 CNS)?
Answer: Its TGI is 2.95 µM.

Question: What about the TGI (MCF7 breast) of the same compound?
Answer: Its TGI is 2.62 µM.

Question: What about the TGI (TK-10 renal) of the same compound?
Answer: Its TGI is 3.22 µM.

Question: And the TGI (BT-549 breast)?
Answer: The TGI was 3.44 µM.

Question: What about the TGI (SK-MEL-28 melanoma) of the same compound?
Answer: Its TGI is 3.74 µM.

Question: And the TGI (COLO 205 colon)?
Answer: The TGI was 1.96 µM.

Question: And the TGI (HS 578T breast)?
Answer: Its TGI is 4.14 µM.

Question: What about the TGI (SNB-19 CNS) of the same compound?
Answer: The TGI was 2.74 µM.

Question: And the TGI (HCC-2998 colon)?
Answer: The TGI was 2.73 µM.

Question: What about the TGI (PC-3 prostate) of the same compound?
Answer: The TGI was 2.93 µM.

Question: And the TGI (IGROV1 ovarian)?
Answer: The TGI was 36.4 µM.

Question: And the TGI (NCI-H460 lung)?
Answer: Its TGI is 4.03 µM.

Question: And the TGI (SF-539 CNS)?
Answer: The TGI was 3.34 µM.

Question: What about the TGI (OVCAR-5 ovarian) of the same compound?
Answer: Its TGI is 3.11 µM.

Question: What about the TGI (UACC-62 melanoma) of the same compound?
Answer: The TGI was 3.22 µM.

Question: And the TGI (CAKI-1 renal)?
Answer: Its TGI is 6.93 µM.

Question: What about the TGI (EKVX NSCLC) of the same compound?
Answer: Its TGI is 3.44 µM.

Question: What about the TGI (A498 renal) of the same compound?
Answer: Its TGI is 3.21 µM.

Question: What about the TGI (MDA-MB-231 breast) of the same compound?
Answer: The TGI was 3.13 µM.

Question: And the TGI (OVCAR-3 ovarian)?
Answer: Its TGI is 2.89 µM.

Question: What about the TGI (UO-31 renal) of the same compound?
Answer: The TGI was 6.13 µM.

Question: What about the TGI (T-47D breast) of the same compound?
Answer: The TGI was 3.58 µM.

Question: What about the TGI (SN12C renal) of the same compound?
Answer: The TGI was 3.2 µM.

Question: And the TGI (RXF 393 renal)?
Answer: Its TGI is 7.55 µM.

Question: And the TGI (SK-OV-3 ovarian)?
Answer: Its TGI is 3.35 µM.

Question: And the TGI (UACC-257 melanoma)?
Answer: The TGI was 3.65 µM.

Question: And the TGI (RPMI-8226 leukemia)?
Answer: Its TGI is 28.3 µM.

Question: What about the TGI (SF-295 CNS) of the same compound?
Answer: The TGI was 2.87 µM.

Question: What about the TGI (DU-145 prostate) of the same compound?
Answer: Its TGI is 3.21 µM.

Question: And the TGI (786-0 renal)?
Answer: The TGI was 3.07 µM.

Question: What about the TGI (NCI-H23 lung) of the same compound?
Answer: The TGI was 3.46 µM.

Question: And the TGI (HT29 colon)?
Answer: Its TGI is 2.95 µM.

Question: What about the TGI (SNB-75 CNS) of the same compound?
Answer: Its TGI is 3.27 µM.

Question: And the TGI (K-562 leukemia)?
Answer: The TGI was 2.84 µM.

Question: And the TGI (A549 NSCLC)?
Answer: The TGI was 3.34 µM.

Question: What about the TGI (HL-60(TB) leukemia) of the same compound?
Answer: Its TGI is 5.8 µM.

Question: And the TGI (ACHN renal)?
Answer: The TGI was 7.27 µM.

Question: And the TGI (HCT-15 colon)?
Answer: Its TGI is 23.7 µM.

Question: And the TGI (MDA-MB-435)?
Answer: The TGI was 2.87 µM.

Question: And the TGI (SK-MEL-2 melanoma)?
Answer: The TGI was 3.33 µM.

Question: And the TGI (M14 melanoma)?
Answer: The TGI was 3.38 µM.

Question: What about the TGI (OVCAR-4 ovarian) of the same compound?
Answer: Its TGI is 2.97 µM.

Question: And the TGI (HCT-116 colon)?
Answer: Its TGI is 3.05 µM.
